Measured values taken from PubChem BioAssay (NCI).
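How tested: cells in 96-well plates exposed to compound for 48 hours at five concentrations. Here, GI50 denotes the concentration required for 50% inhibition of growth. The concentration for full growth arrest is given as TGI.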

Legend:
Assay in all cases: NCI-60 cell line screen, 48 h
[1] = system: DU-145 prostate
[2] = system: HCC-2998 colon
[3] = system: KM12 colon
[4] = system: M14 melanoma
[5] = system: NCI-H226 lung
[6] = system: RPMI-8226 leukemia
[7] = system: SK-MEL-28 melanoma
[8] = system: SW-620 colon
[9] = system: UO-31 renal
[10] = system: HL-60(TB) leukemia

SMILES | TGI [1] [µM] | TGI [2] [µM] | TGI [3] [µM] | TGI [4] [µM] | TGI [5] [µM] | TGI [6] [µM] | TGI [7] [µM] | TGI [8] [µM] | TGI [9] [µM] | TGI [10] [µM] | GI50 [2] [µM] | GI50 [4] [µM] | GI50 [7] [µM] | GI50 [9] [µM] | GI50 [10] [µM] | GI50 [3] [µM] | GI50 [6] [µM] | GI50 [8] [µM] | GI50 [5] [µM] | GI50 [1] [µM]
O=C(/C=C/c1ccccc1)CCc1c(O)c2ccccc2oc1=O | > 100 | > 100 | > 100 | > 100 | > 100 | > 100 | > 100 | > 100 | > 100 |  |  |  |  |  |  |  |  |  |  | 
COc1cc(C2(C)SCCCS2)c(I)c(OC)c1OC |  | > 100 | > 100 | > 100 | > 100 | > 100 | > 100 | > 100 | > 100 | > 100 |  |  |  |  |  |  |  |  |  | 
Cc1ccc(C)c2c1CCc1cc3ccccc3nc1-2 |  | > 100 | > 100 | > 100 |  | > 100 | > 100 | > 100 | > 100 |  |  |  |  |  |  |  |  |  |  | 
CCC1(CC)C(=O)[N-]C(=O)[N-]C1=O.[Au+].[Au+].c1ccc([PH+](c2ccccc2)c2ccccc2)cc1.c1ccc([PH+](c2ccccc2)c2ccccc2)cc1 |  | 3.41 |  | 2.05 |  |  | 2.34 |  | 3.04 |  | 1.98 | 0.752 | 0.988 | 1.65 |  |  |  |  |  | 
C[C@@H](c1ccccc1)N(CC#N)C1CCC[C@H]1O (some centres undefined) |  | > 100 | > 100 | > 100 | > 100 | > 100 | > 100 | > 100 | > 100 | > 100 |  |  |  |  |  |  |  |  |  | 
COC(=O)/C(=N/O)C(C(=O)OC)C(=O)C(=O)Nc1c(Cl)cc(C)cc1S(=O)(=O)O (centres undefined) |  | > 100 | > 100 | > 100 | > 100 | 53.3 | > 100 |  | > 100 | > 100 |  |  |  |  |  |  |  |  |  | 
C/C=C/C(=O)[O-].N.N.N.N.N.[Co+3].[O-][Cl+3]([O-])([O-])[O-] |  | > 100 | > 100 | > 100 |  | > 100 | > 100 | > 100 | > 100 | > 100 | > 100 | > 100 | > 100 | > 100 | > 100 | > 100 | > 100 | > 100 |  | 
O=C(O)c1oc2cccc3c2c1CCC3 |  | > 100 | > 100 | > 100 |  | > 100 | > 100 | > 100 | > 100 | > 100 |  |  |  |  |  |  |  |  |  | 
N=C1C(c2nc(-c3ccc(Br)cc3)cs2)=C(O)CN1CC1CCCO1 (centres undefined) |  | > 100 | > 100 |  | > 100 | > 100 | > 100 |  | > 100 | > 100 | > 100 |  | > 100 | > 100 | > 100 | > 100 | > 100 |  | > 100 | 
C(#Cc1ccccc1C#Cc1ccccn1)c1ccccn1 | 38 | 14.5 | 22.9 | > 100 | 37.9 |  | 84 | 56.7 | 35.3 | 17.7 | 4.77 | 22.1 | 27.4 | 16.4 | 3.92 | 11 |  | 21.2 | 16.6 | 19.8
O=C(O)Cc1cc(=O)[nH]c2c1C(=O)CCC2 |  | > 100 | > 100 | > 100 | > 100 | > 100 | > 100 | > 100 | > 100 | > 100 |  |  |  |  |  |  |  |  |  | 
COC(=O)C1=C(c2cc(OC)c(OC)c(OC)c2)O[C@H](c2ccc3c(c2)OCO3)[C@H]1COC(C)=O |  | > 100 | > 100 | 43.3 | > 100 | > 100 |  | > 100 | 80 | 40.3 |  |  |  |  |  |  |  |  |  | 
CCCCCCCCCCCCCCC(O)C1CCC(C(O)CCC(O)CCCCCC(O)CC2=CC(C)OC2=O)O1 (centres undefined) |  | 4.94 |  | 22.8 | 7.27 | 2.75 | 10.1 | 13.9 | 6.78 | 1.56 |  |  |  |  |  |  |  |  |  | 
COc1ccc(N2C(=O)C(N3C(=O)C=CC3=O)C2C=O)cc1 (centres undefined) |  | > 100 | > 100 | > 100 |  | > 100 | > 100 | > 100 | > 100 | > 100 |  |  |  |  |  |  |  |  |  | 
S=c1[nH]nc(SCc2ccccc2Cl)c2[nH]cnc12 | > 100 |  | > 100 | > 100 | > 100 | > 100 | > 100 | > 100 | > 100 | > 100 |  |  |  |  |  |  |  |  |  | 
CC(C)(O)CCC(O)C(C)(O)C1CCC2(O)C3=CC(=O)C4(O)CC(O)C(O)CC4(C)C3CCC12C (centres undefined) (tested in a mixture with another compound) | > 100 |  | > 100 | > 100 | > 100 |  | > 100 | > 100 | > 100 | > 100 |  |  |  |  |  |  |  |  |  | 
O=C1C2=C(c3ccccc31)C(c1ccc(Cl)cc1)NC(=S)N2 (centres undefined) |  |  | 52.5 | 54.6 | 67.7 | 52.8 | 34.1 | 40.5 | 35 | 37.8 |  |  |  |  |  |  |  |  |  | 
CCCCN(CCCC)C(=O)C(=O)CC(=O)/C=C/c1ccccc1 |  | > 100 | > 100 | > 100 | > 100 | > 100 | > 100 | > 100 | > 100 | > 100 |  |  |  |  |  |  |  |  |  | 
COc1ccc(/C=C/c2cnc3ccccc3n2)cc1OC | > 100 |  | > 100 | > 100 | > 100 | > 100 | > 100 | > 100 | > 100 | > 100 |  |  |  |  |  |  |  |  |  | 
O=C1C2=C(c3ccccc31)C(c1ccc(F)cc1)N1C(=O)CCSC1=N2 (centres undefined) |  | > 100 | > 100 | > 100 | > 100 | > 100 | > 100 | > 100 | > 100 | > 100 |  |  |  |  |  |  |  |  |  | 
COC(=O)C12C3C4C1C1C2C3C41C(=O)N(C(C)C)C(C)C (centres undefined) |  | > 100 | > 100 | > 100 | > 100 |  | > 100 | > 100 | > 100 | > 100 |  |  |  |  |  |  |  |  |  | 
